Experimental data reported in patent US20250382344A1, “Soluble GLP1/GIP/NPY2 Receptor Triple Agonists” (Boehringer Ingelheim International GmH, priority 2024, published 2025).
Where two headings read alike, the source gives them in different places. *1 amine or outer side, *2 acyl side, *3 side chain or, on linkers, in order; H or OH if unused. Where a SMILES comes first, the peptide text is derived from it. Side-chain parts run from the residue outwards. [ ]: non-standard residue; d: D form. The star is where a group is joined. C18 diacid = O=C(O)CCCCCCCCCCCCCCCCC(=O)*; γGlu = O=C(O)[C@H](CCC(=O)[*:2])N[*:1]; Aib = CC(C)(N)C(=O)O

Tests used:
hGLP1R = target: T1, hGLP1R (Homo sapiens, UniProt P43220); assay: hGLP1R CreLuc assay in 0.5% and 100% plasma (HEK-293 CRE-luciferase reporter cells); format: cell-based; conditions: HEK-293 reporter cells
T1 construct: expressed in transfected cells; host or cells: HEK-293 CRE-luciferase reporter cells
T1 sequence (P43220 24-463): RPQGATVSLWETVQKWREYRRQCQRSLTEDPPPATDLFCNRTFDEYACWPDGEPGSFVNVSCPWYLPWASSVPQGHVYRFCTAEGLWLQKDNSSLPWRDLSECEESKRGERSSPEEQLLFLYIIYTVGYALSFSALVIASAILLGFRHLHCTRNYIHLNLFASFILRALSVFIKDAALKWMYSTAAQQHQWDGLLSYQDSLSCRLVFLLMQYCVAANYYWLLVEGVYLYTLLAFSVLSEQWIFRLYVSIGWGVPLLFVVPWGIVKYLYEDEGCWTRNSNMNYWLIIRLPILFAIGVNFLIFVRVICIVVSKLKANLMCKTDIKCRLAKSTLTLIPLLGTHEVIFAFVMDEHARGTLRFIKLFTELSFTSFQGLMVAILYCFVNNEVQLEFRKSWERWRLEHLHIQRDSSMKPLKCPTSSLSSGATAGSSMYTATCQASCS

hGIPR = target: T2, hGIPR (Homo sapiens, UniProt P48546); assay: hGIPR CreLuc assay in 0.5% and 100% plasma (CHO CRE-luciferase reporter cells); format: cell-based
T2 construct: expressed in transfected cells; host or cells: CHO CRE-luciferase reporter cells
T2 sequence (P48546 22-466): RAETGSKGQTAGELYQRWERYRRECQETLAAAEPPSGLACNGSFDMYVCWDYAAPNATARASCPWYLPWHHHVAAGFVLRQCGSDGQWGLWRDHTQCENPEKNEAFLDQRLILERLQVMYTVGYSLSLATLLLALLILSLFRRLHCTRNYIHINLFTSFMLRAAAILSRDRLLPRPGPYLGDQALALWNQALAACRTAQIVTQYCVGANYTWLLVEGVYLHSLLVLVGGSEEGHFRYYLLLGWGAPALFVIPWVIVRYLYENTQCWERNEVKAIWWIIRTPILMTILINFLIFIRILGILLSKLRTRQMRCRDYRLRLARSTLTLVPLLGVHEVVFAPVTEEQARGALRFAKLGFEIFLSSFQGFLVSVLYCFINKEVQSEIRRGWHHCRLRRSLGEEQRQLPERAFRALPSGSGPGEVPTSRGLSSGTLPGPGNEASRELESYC

[1] = Solubility in 0.1 M phosphate buffer at pH 7; format: physicochemical; conditions: 0.1 M phosphate buffer at pH 7, 10 mg/mL final peptide concentration, shaking 2 hours at room temperature, peptides as TFA-salts, measured sample pH 6.5-7.0; for solubility: read-out: Solubility
[2] = 0.5% human plasma, read-out: hGLP1R 0.5% hP
[3] = 100% human plasma, read-out: hGLP1R 100% hP
[4] = 0.5% human plasma, read-out: hGIPR 0.5% hP

SMILES | EC50 (hGLP1R; [2]) | EC50 (hGLP1R; [3]) | EC50 (hGIPR; [4]) | EC50 (hGIPR; 100% human plasma, read-out: hGIPR 100% hP) | solubility at 2 h [1] | solubility [1]
CC[C@H](C)[C@H](NC(=O)[C@H](CC(C)C)NC(=O)[C@H](Cc1c[nH]cn1)NC(=O)[C@H](CCCNC(=N)N)NC(=O)[C@@H](NC(=O)[C@H](Cc1ccccc1)NC(=O)[C@H](CCC(=O)O)NC(=O)C(C)(C)NC(=O)[C@H](CCC(N)=O)NC(=O)[C@H](C)NC(=O)[C@H](CCC(N)=O)NC(=O)[C@H](CCC(=O)O)NC(=O)[C@H](CCC(=O)O)NC(=O)[C@H](CC(C)C)NC(=O)C(C)(C)NC(=O)[C@@H](NC(=O)[C@H](CO)NC(=O)[C@H](Cc1ccc(O)cc1)NC(=O)[C@H](CC(=O)O)NC(=O)[C@H](CO)NC(=O)[C@@H](NC(=O)[C@H](Cc1ccccc1)NC(=O)[C@@H](NC(=O)CNC(=O)[C@H](CCC(=O)O)NC(=O)C(C)(C)NC(=O)[C@@H](N)Cc1ccc(O)cc1)[C@@H](C)O)[C@@H](C)O)[C@@H](C)CC)C(C)C)C(=O)N[C@@H](CC(N)=O)C(=O)N[C@@H](CCCCNC(=O)CC[C@H](NC(=O)CC[C@H](NC(=O)CC[C@H](NC(=O)CC[C@H](NC(=O)CCCCCCCCCCCCCCCCC(=O)O)C(=O)O)C(=O)O)C(=O)O)C(=O)O)C(=O)NC(C)(C)C(=O)N[C@H](C(=O)N[C@@H](CCCNC(=N)N)C(=O)N[C@@H](CCC(N)=O)C(=O)N[C@@H](CCCNC(=N)N)C(=O)N[C@@H](Cc1ccc(O)cc1)C(N)=O)[C@@H](C)O [Compound 129, Y-Aib-E-G-T-F-T-S-D-Y-S-I-Aib-L-E-E-Q-A-Q-Aib-E-F-V-R-H-L-I-N-K(1,3)-Aib-T-R-Q-R-Y-NH2.C18DA-gGlu-gGlu-gGlu-gGlu(1,2)] (H-Y[Aib]EGTFTSDYSI[Aib]LEEQAQ[Aib]EFVRHLINK([γGlu-γGlu-γGlu-γGlu-C18 diacid])[Aib]TRQRY-NH2) | 0.9 nM | 2.8 nM | 0.4 nM | 7.1 nM | 5.1 mg/mL | 
CC[C@H](C)[C@H](NC(=O)[C@H](CC(C)C)NC(=O)[C@H](Cc1c[nH]cn1)NC(=O)[C@H](CCCNC(=N)N)NC(=O)[C@@H](NC(=O)[C@H](Cc1ccccc1)NC(=O)[C@H](CCC(=O)O)NC(=O)C(C)(C)NC(=O)[C@H](CCC(N)=O)NC(=O)[C@H](C)NC(=O)[C@H](CCC(=O)O)NC(=O)[C@H](CCC(=O)O)NC(=O)[C@H](CCC(=O)O)NC(=O)[C@H](CC(C)C)NC(=O)C(C)(C)NC(=O)[C@@H](NC(=O)[C@H](CO)NC(=O)[C@H](Cc1ccc(O)cc1)NC(=O)[C@H](CC(=O)O)NC(=O)[C@H](CO)NC(=O)[C@@H](NC(=O)[C@H](Cc1ccccc1)NC(=O)[C@@H](NC(=O)CNC(=O)[C@H](CCC(=O)O)NC(=O)C(C)(C)NC(=O)[C@@H](N)Cc1ccc(O)cc1)[C@@H](C)O)[C@@H](C)O)[C@@H](C)CC)C(C)C)C(=O)N[C@@H](CC(N)=O)C(=O)N[C@@H](CCCCNC(=O)COCCOCCNC(=O)COCCOCCNC(=O)CC[C@H](NC(=O)CCCCCCCCCCCCCCCCC(=O)O)C(=O)O)C(=O)NC(C)(C)C(=O)N[C@H](C(=O)N[C@@H](CCCNC(=N)N)C(=O)N[C@@H](CCC(N)=O)C(=O)N[C@@H](CCCNC(=N)N)C(=O)N[C@@H](Cc1ccc(O)cc1)C(N)=O)[C@@H](C)O [Compound 130, Y-Aib-E-G-T-F-T-S-D-Y-S-I-Aib-L-E-E-E-A-Q-Aib-E-F-V-R-H-L-I-N-K(1,3)-Aib-T-R-Q-R-Y-NH2.C18DA-gGlu-OEG-OEG(1,2)] | 0.5 nM |  | 0.5 nM |  | 5 mg/mL | 
CC[C@H](C)[C@H](NC(=O)[C@H](CC(C)C)NC(=O)[C@H](Cc1c[nH]cn1)NC(=O)[C@H](CCCNC(=N)N)NC(=O)[C@@H](NC(=O)[C@H](Cc1ccccc1)NC(=O)[C@H](C)NC(=O)C(C)(C)NC(=O)[C@H](CCC(N)=O)NC(=O)[C@H](C)NC(=O)[C@H](CCC(N)=O)NC(=O)[C@H](CCCCN)NC(=O)[C@H](CCC(=O)O)NC(=O)[C@H](CC(C)C)NC(=O)C(C)(C)NC(=O)[C@@H](NC(=O)[C@H](CO)NC(=O)[C@H](Cc1ccc(O)cc1)NC(=O)[C@H](CC(=O)O)NC(=O)[C@H](CO)NC(=O)[C@@H](NC(=O)[C@H](Cc1ccccc1)NC(=O)[C@@H](NC(=O)CNC(=O)[C@H](CCC(=O)O)NC(=O)C(C)(C)NC(=O)[C@@H](N)Cc1ccc(O)cc1)[C@@H](C)O)[C@@H](C)O)[C@@H](C)CC)C(C)C)C(=O)N[C@@H](CC(N)=O)C(=O)N[C@@H](CCCCNC(=O)[C@@H](N)CCCCNC(=O)CC[C@H](NC(=O)CC[C@H](NC(=O)CC[C@H](NC(=O)CC[C@H](NC(=O)CC[C@H](NC(=O)CCCCCCCCCCCCCCCCC(=O)O)C(=O)O)C(=O)O)C(=O)O)C(=O)O)C(=O)O)C(=O)NC(C)(C)C(=O)N[C@H](C(=O)N[C@@H](CCCNC(=N)N)C(=O)N[C@@H](CCC(N)=O)C(=O)N[C@@H](CCCNC(=N)N)C(=O)N[C@@H](Cc1ccc(O)cc1)C(N)=O)[C@@H](C)O [Compound 141, Y-Aib-E-G-T-F-T-S-D-Y-S-I-Aib-L-E-K-Q-A-Q-Aib-A-F-V-R-H-L-I-N-K(1,3)-Aib-T-R-Q-R-Y-NH2.C18DA-gGlu-gGlu-gGlu-gGlu-gGlu-eLys(1,2)] | 0.8 nM |  | 0.1 nM |  |  | 1.1 mg/mL
CC[C@H](C)[C@H](NC(=O)[C@H](CC(C)C)NC(=O)[C@H](Cc1c[nH]cn1)NC(=O)[C@H](CCCNC(=N)N)NC(=O)[C@@H](NC(=O)[C@H](Cc1ccccc1)NC(=O)[C@H](CCC(=O)O)NC(=O)C(C)(C)NC(=O)[C@H](CCC(N)=O)NC(=O)[C@H](C)NC(=O)[C@H](CCC(N)=O)NC(=O)[C@H](CCCCN)NC(=O)[C@H](CCC(=O)O)NC(=O)[C@H](CC(C)C)NC(=O)C(C)(C)NC(=O)[C@@H](NC(=O)[C@H](CO)NC(=O)[C@H](Cc1ccc(O)cc1)NC(=O)[C@H](CC(=O)O)NC(=O)[C@H](CO)NC(=O)[C@@H](NC(=O)[C@H](Cc1ccccc1)NC(=O)[C@@H](NC(=O)CNC(=O)[C@H](CCC(=O)O)NC(=O)C(C)(C)NC(=O)[C@@H](N)Cc1ccc(O)cc1)[C@@H](C)O)[C@@H](C)O)[C@@H](C)CC)C(C)C)C(=O)N[C@@H](CC(N)=O)C(=O)N[C@@H](CCCCNC(=O)[C@@H](N)CCCCNC(=O)CC[C@H](NC(=O)CC[C@H](NC(=O)CC[C@H](NC(=O)CC[C@H](NC(=O)CC[C@H](NC(=O)CC[C@H](NC(=O)CCCCCCCCCCCCCCCCC(=O)O)C(=O)O)C(=O)O)C(=O)O)C(=O)O)C(=O)O)C(=O)O)C(=O)NC(C)(C)C(=O)N[C@H](C(=O)N[C@@H](CCCNC(=N)N)C(=O)N[C@@H](CCC(N)=O)C(=O)N[C@@H](CCCNC(=N)N)C(=O)N[C@@H](Cc1ccc(O)cc1)C(N)=O)[C@@H](C)O [Compound 145, Y-Aib-E-G-T-F-T-S-D-Y-S-I-Aib-L-E-K-Q-A-Q-Aib-E-F-V-R-H-L-I-N-K(1,3)-Aib-T-R-Q-R-Y-NH2.C18DA-gGlu-gGlu-gGlu-gGlu-gGlu-gGlu-eLys(1,2)] | 0.5 nM | 1.8 nM | 0.3 nM |  | 5 mg/mL | 
CC[C@H](C)[C@H](NC(=O)[C@H](CC(C)C)NC(=O)[C@H](Cc1c[nH]cn1)NC(=O)[C@H](CCCNC(=N)N)NC(=O)[C@@H](NC(=O)[C@H](Cc1ccccc1)NC(=O)[C@H](C)NC(=O)C(C)(C)NC(=O)[C@H](CCC(N)=O)NC(=O)[C@H](C)NC(=O)[C@H](CCC(N)=O)NC(=O)[C@H](CCCCN)NC(=O)[C@H](CCC(=O)O)NC(=O)[C@H](CC(C)C)NC(=O)C(C)(C)NC(=O)[C@H](C)NC(=O)[C@H](CO)NC(=O)[C@H](Cc1ccc(O)cc1)NC(=O)[C@H](CC(=O)O)NC(=O)[C@H](CO)NC(=O)[C@@H](NC(=O)[C@H](Cc1ccccc1)NC(=O)[C@@H](NC(=O)CNC(=O)[C@H](CCC(=O)O)NC(=O)C(C)(C)NC(=O)[C@@H](N)Cc1ccc(O)cc1)[C@@H](C)O)[C@@H](C)O)C(C)C)C(=O)N[C@@H](CC(N)=O)C(=O)N[C@@H](CCCCNC(=O)[C@@H](N)CCCCNC(=O)CC[C@H](NC(=O)CC[C@H](NC(=O)CC[C@H](NC(=O)CC[C@H](NC(=O)CC[C@H](NC(=O)CC[C@H](NC(=O)CCCCCCCCCCCCCCCCC(=O)O)C(=O)O)C(=O)O)C(=O)O)C(=O)O)C(=O)O)C(=O)O)C(=O)NC(C)(C)C(=O)N[C@H](C(=O)N[C@@H](CCCNC(=N)N)C(=O)N[C@@H](CCC(N)=O)C(=O)N[C@@H](CCCNC(=N)N)C(=O)N[C@@H](Cc1ccc(O)cc1)C(N)=O)[C@@H](C)O [Compound 156, Y-Aib-E-G-T-F-T-S-D-Y-S-A-Aib-L-E-K-Q-A-Q-Aib-A-F-V-R-H-L-I-N-K(1,3)-Aib-T-R-Q-R-Y-NH2.C18DA-gGlu-gGlu-gGlu-gGlu-gGlu-gGlu-eLys(1,2)] | 7 nM |  | 0.8 nM |  |  | 5.1 mg/mL
